The target of one test is O-acyltransferase (Oryctolagus cuniculus, UniProt G1SFD9). As to the kind of experiment: In vitro Acyl coenzyme A:cholesterol acyltransferase inhibitory activity (IAI) was determined by measuring the incorporation of [1-14C]oleolyl-CoA into cholesterol esters by intestinal microsomes isolated from cholesterol-fed rabbits. Set-up: species or system Intestine.
For a further test, the system named is Rattus norvegicus. As to the kind of experiment: In vivo hypocholesterolemic activity was measured in an acute, cholesterol-fed rat model (APCC) at 30 mg/kg dose. Format: functional.

The structures appear in SMILES notation. pIC50: −log10 of the molar value.

Sequence of O-acyltransferase (G1SFD9 1-524): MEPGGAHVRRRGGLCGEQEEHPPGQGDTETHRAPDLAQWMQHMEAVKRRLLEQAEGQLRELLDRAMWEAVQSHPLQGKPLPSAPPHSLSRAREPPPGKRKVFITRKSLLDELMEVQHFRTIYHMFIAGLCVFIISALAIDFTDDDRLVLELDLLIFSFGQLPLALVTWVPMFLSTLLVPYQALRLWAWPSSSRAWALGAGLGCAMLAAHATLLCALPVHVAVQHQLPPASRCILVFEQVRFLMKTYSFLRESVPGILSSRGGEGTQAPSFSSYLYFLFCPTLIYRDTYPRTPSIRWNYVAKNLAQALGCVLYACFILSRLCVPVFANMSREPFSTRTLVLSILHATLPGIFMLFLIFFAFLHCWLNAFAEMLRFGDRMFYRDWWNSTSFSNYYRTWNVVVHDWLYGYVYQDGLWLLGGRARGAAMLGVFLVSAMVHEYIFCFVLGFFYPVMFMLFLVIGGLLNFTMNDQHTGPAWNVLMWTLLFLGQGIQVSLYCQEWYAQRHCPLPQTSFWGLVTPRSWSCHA

`CCCCC[C@H](C)OC(=O)NC(=O)Oc1c(C(C)C)cccc1C(C)C`: the pIC50 at O-acyltransferase is 7.01. The “Delta TC” value with Rattus norvegicus was -25%.
On the same counts, the results for `CCCCC[C@@H](C)OC(=O)NC(=O)Oc1c(C(C)C)cccc1C(C)C` are 6.89 and below -49%.
For `CCCCCCCCCCCCCCC(C)OC(=O)NC(=O)Nc1c(C(C)C)cccc1C(C)C` (stereo unspecified), in that order: 5.17 and below -26%.
As to `CC(C)c1cccc(C(C)C)c1NC(=O)NC(=O)NC(c1ccccc1)c1ccccc1`, the “Delta TC” value with Rattus norvegicus was 4%.
`CCCCCCCCCCCCC(C)OC(=O)NC(=O)Nc1c(C(C)C)cccc1C(C)C` (stereo unspecified) gave a pIC50 against O-acyltransferase of 7.34. In the test with Rattus norvegicus, the “Delta TC” value is listed as below -33%.
For `CC(C)c1cccc(C(C)C)c1OC(=O)NC(=O)SCCN1CCOCC1`, in that order: 6.05 and below -33%.
For `CC(C)c1cccc(C(C)C)c1NC(=O)NC(=O)N(Cc1ccccc1)C(C)C`, in that order: 6.12 and below -22%.
For `CC(C)c1cccc(C(C)C)c1NC(=O)NC(=O)N(c1ccccc1)c1ccccc1`, in that order: 6.47 and below -49%.
In the case of `CC(C)c1cccc(C(C)C)c1OC(=O)NC(=O)SCCc1ccccc1`, on O-acyltransferase, the negative logarithm of the IC50 (pIC50) is 6.06. Further, the “Delta TC” value in the test with Rattus norvegicus is on record as -30%.
On the same counts, the results for `CCCCCCCCCCOC(=O)NC(=O)Oc1c(C(C)C)cccc1C(C)C` are 7.13 and below -44%.
Take `CC(C)c1cccc(C(C)C)c1NC(=O)NC(=O)N1c2ccccc2Cc2ccccc21`: the pIC50 against O-acyltransferase was 6.05. Besides, the “Delta TC” value with Rattus norvegicus is given as -18%.
For `O=C(NC(=O)Oc1c(-c2ccccc2)cccc1-c1ccccc1)Oc1c(-c2ccccc2)cccc1-c1ccccc1`, in that order: 6.64 and 0%.
For `CCCCCCCCN(CCCCCCCC)C(=O)NC(=O)Nc1c(C(C)C)cccc1C(C)C`, in that order: 6.46 and 3%.
With `CC(C)c1cccc(C(C)C)c1NC(=O)NC(=O)N1CCCC1`, the “Delta TC” value with Rattus norvegicus is given as -7%.
On the same count and under the same terms, the figure for `CCCCCCCCCCCCOC(=O)NC(=O)Sc1c(C(C)C)cccc1C(C)C` is -4%.
For the compound `CC(C)c1cccc(C(C)C)c1OC(=O)NC(=O)Sc1c(C(C)C)cccc1C(C)C`, on O-acyltransferase, the pIC50 was 5.49. Further, the “Delta TC” value in the test on Rattus norvegicus is on record as below -20%.
On the same counts, the results for `CC(C)c1cccc(C(C)C)c1NC(=O)NC(=O)OC(c1ccccc1)c1ccccc1` are 5.11 and -3%.
On the same counts, the results for `CC(C)c1cccc(C(C)C)c1OC(=O)NC(=O)SCc1ccccc1` are 6.36 and below -43%.
On O-acyltransferase, `COC(=O)C(OC(=O)NC(=O)Oc1c(C(C)C)cccc1C(C)C)c1ccccc1` (stereo unspecified) gave a pIC50 of 6.03. For the same compound, in the test with Rattus norvegicus, the “Delta TC” value is recorded as -3%.
On the same counts, the results for `CCCCN(CCCC)C(=O)NC(=O)Nc1c(C(C)C)cccc1C(C)C` are 6.60 and below -30%.
For `CCCCCCCCCCC(C)(C)COC(=O)NC(=O)Oc1c(C(C)C)cccc1C(C)C`, in that order: 7.70 and below -72%.
Turning to `CC(C)c1cccc(C(C)C)c1OC(=O)NC(=O)OC(c1ccccc1)c1ccccc1`, on O-acyltransferase, the negative-log IC50 (pIC50) is 6.46. Further, in the test with Rattus norvegicus, the “Delta TC” value is below -44%.
Take `CCCCCCCCCCCCCCCCOC(=O)NC(=O)Oc1c(C(C)C)cccc1C(C)C`: in the test with Rattus norvegicus, the “Delta TC” value is given as below -70%.
For `CCCCCCCCCCCCCCCCCCOC(=O)NC(=O)Oc1c(C(C)C)cccc1C(C)C`, the pIC50 at O-acyltransferase is 6.00. Besides, the “Delta TC” value in the test on Rattus norvegicus is below -35%.
For `CCCCCCCCCCCCCOC(=O)NC(=O)Oc1c(C(C)C)cccc1C(C)C`, in that order: 8.05 and below -69%.
On the same counts, the results for `CCCCCC(C)OC(=O)NC(=O)Nc1c(C(C)C)cccc1C(C)C` (stereo unspecified) are 5.97 and below -22%.
On the same counts, the results for `CCCCCCCCCCCSC(=O)NC(=O)Oc1c(C(C)C)cccc1C(C)C` are 6.68 and below -54%.
In the case of `CCCCCCCCC(C)OC(=O)NC(=O)Nc1c(C(C)C)cccc1C(C)C` (stereo unspecified), on O-acyltransferase, the pIC50 is 6.12. In the test on Rattus norvegicus, the “Delta TC” value is recorded as below -22%.
For `CCCCCCCCCCCCOC(=O)NC(=O)Nc1c(C(C)C)cccc1C(C)C`, in that order: 6.92 and below -38%.
On the same counts, the results for `CC(C)c1cccc(C(C)C)c1NC(=O)NC(=O)Oc1c(C(C)C)cccc1C(C)C` are 6.01 and below -25%.
For `CCCCCCCCSC(=O)NC(=O)Oc1c(C(C)C)cccc1C(C)C`, in that order: 6.80 and below -63%.
Compound `CC(C)c1cccc(C(C)C)c1OC(=O)NC(=O)Oc1c(C(C)C)cccc1C(C)C` had a pIC50 on O-acyltransferase of 6.96. The “Delta TC” value with Rattus norvegicus was -24%.
For `CCCCCCCCCCCOC(=O)NC(=O)Oc1c(C(C)C)cccc1C(C)C`, in that order: 6.85 and below -65%.
The compound `CCCCCCCCCCCCCCN(C)C(=O)NC(=O)Nc1c(C(C)C)cccc1C(C)C` had a pIC50 on O-acyltransferase of 5.77.
As for `CC(C)c1cccc(C(C)C)c1OC(=O)NC(=O)Oc1cccc2ccccc12`, at O-acyltransferase, the pIC50 was 5.43.
Regarding `CCCCCCCCCCCCSC(=O)NC(=O)Oc1c(C(C)C)cccc1C(C)C`, the pIC50 at O-acyltransferase was 7.80. Also, in the test with Rattus norvegicus, the “Delta TC” value is recorded as below -63%.
For `Cc1cccc(C)c1OC(=O)NC(=O)Oc1c(C)cccc1C`, in that order: below 5.30 and 4%.
`CCCCCCCCCCC(C)OC(=O)NC(=O)Nc1c(C(C)C)cccc1C(C)C` (stereo unspecified): in the test on Rattus norvegicus, the “Delta TC” value is recorded as below -26%.
In the case of `CCCCCCCCCCSC(=O)NC(=O)Oc1c(C(C)C)cccc1C(C)C`, the pIC50 at O-acyltransferase was 6.89. Besides, in the test on Rattus norvegicus, the “Delta TC” value was below -52%.
`CCCCCCCCOC(=O)NC(=O)Oc1c(C(C)C)cccc1C(C)C` had a pIC50 against O-acyltransferase of 6.60. In addition, the “Delta TC” value in the test with Rattus norvegicus was below -47%.
On the same counts, the results for `CC(C)c1cccc(C(C)C)c1NC(=O)NC(=O)N1c2ccccc2Sc2ccccc21` are 5.72 and -6%.
In turn, `CCCCCCCCCCCCC(C)(C)OC(=O)NC(=O)Oc1c(C(C)C)cccc1C(C)C` had a negative logarithm of the IC50 (pIC50) against O-acyltransferase of 7.68. In addition, the “Delta TC” value in the test with Rattus norvegicus is listed as below -51%.
Turning to `CC(C)c1cccc(C(C)C)c1OC(=O)NC(=O)SCc1ccc(Cl)cc1`, the pIC50 at O-acyltransferase was 6.80. Moreover, in the test on Rattus norvegicus, the “Delta TC” value is given as below -50%.
On O-acyltransferase, `CC(C)c1cccc(C(C)C)c1OC(=O)NC(=O)Oc1ccccc1` gave a pIC50 of 5.74. Moreover, the “Delta TC” value in the test with Rattus norvegicus is recorded as below -29%.
For the compound `CC(C)c1cccc(C(C)C)c1NC(=O)NC(=O)N(Cc1ccccc1)Cc1ccccc1`, the pIC50 against O-acyltransferase was 5.98. The “Delta TC” value with Rattus norvegicus was -14%.
As for `CC(C)c1cccc(C(C)C)c1OC(=O)NC(=O)SCCCc1ccccc1`, the pIC50 against O-acyltransferase is 7.16. In addition, in the test on Rattus norvegicus, the “Delta TC” value is listed as below -63%.
For `CCCCCCOC(=O)NC(=O)Oc1c(C(C)C)cccc1C(C)C`, in that order: 7.28 and below -38%.
For `CCCCCCCCCCCCSC(=O)NC(=O)Sc1c(C(C)C)cccc1C(C)C`, in that order: below 5.30 and below -36%.
On the same counts, the results for `CC(C)c1cccc(C(C)C)c1OC(=O)NC(=O)OCCCc1ccccc1` are 6.18 and -24%.
On O-acyltransferase, `CC(C)c1cccc(C(C)C)c1OC(=O)NC(=O)Sc1ccccc1` showed a pIC50 below 5.30. Also, the “Delta TC” value in the test on Rattus norvegicus is below -37%.
As to `CC(C)c1cccc(C(C)C)c1NC(=O)NC(=O)Nc1c(C(C)C)cccc1C(C)C`, the “Delta TC” value in the test with Rattus norvegicus stood at 0%.
On O-acyltransferase, `CCCCCCCC(C)OC(=O)NC(=O)Nc1c(C(C)C)cccc1C(C)C` (stereo unspecified) showed a pIC50 of 6.41. Further, the “Delta TC” value in the test with Rattus norvegicus is given as below -24%.
On the same counts, the results for `CC(C)(C)c1cccc(C(C)(C)C)c1OC(=O)NC(=O)Oc1c(C(C)(C)C)cccc1C(C)(C)C` are 5.92 and below -23%.
As to `CC(C)c1cccc(C(C)C)c1OC(=O)NC(=O)N(c1ccccc1)c1ccccc1`, the pIC50 on O-acyltransferase was 6.77. Further, the “Delta TC” value in the test on Rattus norvegicus is listed as -3%.
The compound `CCCCCCCCCCCCCCOC(=O)NC(=O)Oc1c(C(C)C)cccc1C(C)C` had a pIC50 against O-acyltransferase of 8.00. Also, the “Delta TC” value with Rattus norvegicus was below -59%.
For `CC(C)c1cccc(C(C)C)c1NC(=O)NC(=O)N1CCC(c2ccccc2)CC1`, in that order: 6.05 and 3%.
For `CCCCCCCCCCCCCCOC(=O)NC(=O)Oc1c(OC)cc(OC)cc1OC`, in that order: below 5.30 and -15%.
On the same counts, the results for `CC(C)c1cccc(C(C)C)c1OC(=O)NC(=O)SCc1ccco1` are 6.33 and below -51%.
With `CC(C)c1cccc(C(C)C)c1NC(=O)N(C)C(=O)N(c1ccccc1)c1ccccc1`, at O-acyltransferase, the pIC50 was 6.36.
`CCN(CC)C(=O)NC(=O)Nc1c(C(C)C)cccc1C(C)C`: in the test on Rattus norvegicus, the “Delta TC” value was -16%.
`CC(C)c1cccc(C(C)C)c1OC(=O)NC(=O)OCc1ccccc1` gave a pIC50 against O-acyltransferase of 7.11. Also, in the test on Rattus norvegicus, the “Delta TC” value is on record as -23%.
On the same counts, the results for `CCCCC(C)(C)OC(=O)NC(=O)Oc1c(C(C)C)cccc1C(C)C` are 7.19 and -29%.
In the case of `CCCCCCCCCCCCC(C)(C)OC(=O)NC(=O)Nc1c(C(C)C)cccc1C(C)C`, at O-acyltransferase, the pIC50 is 7.19.
`CCCCCCCCCCCCOC(=O)NC(=O)Oc1c(C(C)C)cccc1C(C)C` gave a pIC50 on O-acyltransferase of 7.68. The “Delta TC” value with Rattus norvegicus is below -52%.
On the same counts, the results for `Cc1cccc(C)c1SC(=O)NC(=O)Sc1c(C)cccc1C` are below 5.30 and -13%.
As to `CC(C)c1cccc(C(C)C)c1OC(=O)NC(=O)NC(c1ccccc1)c1ccccc1`, the “Delta TC” value in the test on Rattus norvegicus is -4%.
For the compound `CCCCCCCCCCCCSC(=O)NC(=O)Oc1c(OC)cc(OC)cc1OC`, the pIC50 at O-acyltransferase is 6.60. Further, the “Delta TC” value in the test on Rattus norvegicus is on record as below -59%.
For `CC(C)c1cccc(C(C)C)c1OC(=O)NC(=O)SC1CCCCC1`, in that order: 7.01 and below -63%.
For `CCCCCCCCCCCCC(C)OC(=O)NC(=O)Oc1c(C(C)C)cccc1C(C)C` (racemic), in that order: 7.77 and below -50%.

The values are drawn from ChEMBL document CHEMBL1127594, “Inhibitors of acyl-CoA:cholesterol O-acyltransferase. 11. Structure-activity relationships of several series of compounds derived from N-(chlorocarbonyl) isocyanate” (J Med Chem, 1994).
